Test results as given in patent publication US8273770B2, “5-pyridinone substituted indazoles” (Albany Molecular Research, Inc., priority 2007, dated 2012).
Counter-ions that a name gives are not always drawn.

tested on: not given; experiment: not given; conditions: not given

| melting point | SMILES |
| --- | --- |
| 255 to 260 °C (dec.) | Cl.O=c1cc(-c2ccc(Cl)cc2)ccn1-c1ccc2c(cnn2CCN2CCCC2)c1 |
| 80 to 85 °C | CC1CCC(c2ccn(-c3ccc4c(cnn4CCN4CCCC4)c3)c(=O)c2)CC1.Cl (stereo not shown) |
| 148 to 150 °C | Cl.O=c1cc(-c2ccc(C(F)(F)F)cc2)ccn1-c1ccc2c(cnn2CCN2CC3CC2CO3)c1 (stereo not shown) |
| 235 to 255 °C | Cl.O=c1cc(-c2ccc(F)cc2F)ccn1-c1ccc2c(cnn2CCN2CCCC2)c1 |
| 209 to 211 °C | CN(C)CCCn1ncc2cc(-n3ccc(-c4ccc(C(F)(F)F)cc4)cc3=O)ccc21.Cl |
| 75 to 85 °C | Cc1cc(OCc2ccccc2)ccc1-c1ccn(-c2ccc3c(cnn3CCN3CCCC3)c2)c(=O)c1.Cl |
| 241 to 245 °C | Cl.O=c1cc(-c2ccc(C(F)(F)F)cc2)ccn1-c1ccc2c(cnn2C[C@@H]2CCCN2)c1 |
| 256 to 260 °C | Cl.O=c1cc(-c2cc3ccccc3o2)ccn1-c1ccc2c(cnn2CCN2CCCC2)c1 |
| 205 to 215 °C | COc1ccc(-c2ccn(-c3ccc4c(cnn4CCN4CCCC4)c3)c(=O)c2)c(C)c1.Cl |
| 202 to 209 °C | Cl.O=c1cc(-c2ccc(OC(F)(F)F)cc2)ccn1-c1ccc2c(cnn2CCN2CCCC2)c1 |
| 230 to 240 °C | COc1ccc(-c2ccn(-c3ccc4c(cnn4CCN4CCCC4)c3)c(=O)c2)c(F)c1.Cl |
| 248 to 256 °C | COc1cc(Cl)ccc1-c1ccn(-c2ccc3c(cnn3CCN3CCCC3)c2)c(=O)c1.Cl |
| 235 to 250 °C | CC(C)Oc1ccc(-c2ccn(-c3ccc4c(cnn4CCN4CCCC4)c3)c(=O)c2)cc1.Cl |
| 75 to 85 °C | Cl.O=c1cc(-c2ccc3c(c2)OCO3)ccn1-c1ccc2c(cnn2CCN2CCCC2)c1 |
| 222 to 224 °C (dec.) | Cl.NCCCn1ncc2cc(-n3ccc(-c4ccc(C(F)(F)F)cc4)cc3=O)ccc21 |
| 116 to 119 °C | Cl.O=c1cc(-c2ccc(C(F)(F)F)cc2)ccn1-c1ccc2c(cnn2C[C@H](O)CN2CCCC2)c1 |
| 215 to 230 °C | Cl.O=c1cc(-c2ccc(Cl)cc2F)ccn1-c1ccc2c(cnn2CCN2CCCC2)c1 |
| 222 to 224 °C (dec.) | Cl.O=c1cc(-c2ccc(C(F)(F)F)cc2)ccn1-c1ccc2c(cnn2CCN2CCNCC2)c1 |
| 240 to 246 °C | Cc1ccc(-c2ccn(-c3ccc4c(cnn4CCN4CCCC4)c3)c(=O)c2)cc1.Cl |
| 225 to 235 °C | COc1ccc(-c2ccn(-c3ccc4c(cnn4CCN4CCCC4)c3)c(=O)c2)c(Cl)c1.Cl |

Further lines, the molecule ahead of its results:

| SMILES | melting point |
| --- | --- |
| Cl.N#Cc1cc(F)ccc1-c1ccn(-c2ccc3c(cnn3CCN3CCCC3)c2)c(=O)c1 | 81 to 86 °C |
| Cc1cc(OC(F)(F)F)ccc1-c1ccn(-c2ccc3c(cnn3CCN3CCCC3)c2)c(=O)c1.Cl | 185 to 195 °C |
| Cl.O=c1cc(-c2ccc(N3CCCCC3)cc2)ccn1-c1ccc2c(cnn2CCN2CCCC2)c1 | 80 to 90 °C |
| Cc1ccc(-c2ccn(-c3ccc4c(cnn4CCN4CCCC4)c3)c(=O)c2)nc1.Cl | 230 to 234 °C |
| Cl.O=c1cc(-c2ccc3ccccc3c2)ccn1-c1ccc2c(cnn2CCN2CCCC2)c1 | 128 to 134 °C |
| CN(C)C[C@@H](O)Cn1ncc2cc(-n3ccc(-c4ccc(C(F)(F)F)cc4)cc3=O)ccc21.Cl | 210 to 213 °C |
| Cl.O=c1cc(-c2ccc(-n3cccn3)cc2)ccn1-c1ccc2c(cnn2CCN2CCCC2)c1 | 271 to 275 °C |
| Cl.O=c1cc(-c2ccc(C(F)(F)F)cc2C(F)(F)F)ccn1-c1ccc2c(cnn2CCN2CCCC2)c1 | 235 to 245 °C |
| COc1ccc2[nH]c(-c3ccn(-c4ccc5c(cnn5CCN5CCCC5)c4)c(=O)c3)cc2c1.Cl | 275 to 280 °C |
| Cl.O=c1cc(-c2cc3ccccc3s2)ccn1-c1ccc2c(cnn2CCN2CCCC2)c1 | 260 to 264 °C |
| Cl.O=c1cc(-c2ccc(OC(F)(F)F)cc2F)ccn1-c1ccc2c(cnn2CCN2CCCC2)c1 | 215 to 225 °C |
| Cl.N#Cc1ccc(-c2ccn(-c3ccc4c(cnn4CCN4CCCC4)c3)c(=O)c2)cc1 | 92 to 96 °C |
| Cc1ccc2oc(-c3ccn(-c4ccc5c(cnn5CCN5CCCC5)c4)c(=O)c3)nc2c1.Cl | 270 to 280 °C |
| CC1CC=C(c2ccn(-c3ccc4c(cnn4CCN4CCCC4)c3)c(=O)c2)CC1.Cl (stereo not shown) | 256 to 260 °C |
| CCCCOc1ccc(-c2ccn(-c3ccc4c(cnn4CCN4CCCC4)c3)c(=O)c2)c(C)c1.Cl | 80 to 95 °C |
| Cl.O=c1cc(-c2ccc(F)cc2)ccn1-c1ccc2c(cnn2CCN2CCCC2)c1 | 115 to 120 °C |
| Cl.O=c1cc(-c2cccc(Cl)c2)ccn1-c1ccc2c(cnn2CCN2CCCC2)c1 | 118 to 125 °C |
| CCOc1ccc(-c2ccn(-c3ccc4c(cnn4CCN4CCCC4)c3)c(=O)c2)cc1.Cl | 255 to 265 °C |
| O=c1cc(-c2ccc3ccccc3n2)ccn1-c1ccc2c(cnn2CCN2CCCC2)c1 (as salt: hydrochloride) | 220 to 225 °C |
| Cc1ccccc1-c1ccn(-c2ccc3c(cnn3CCN3CCCC3)c2)c(=O)c1.Cl | 80 to 95 °C |
| COc1ccc(-c2ccn(-c3ccc4c(cnn4CCN4CCCC4)c3)c(=O)c2)cc1.Cl | 105 to 110 °C |
| COc1ccc(-c2ccn(-c3ccc4c(cnn4CCN4CCCC4)c3)c(=O)c2)c(OC)c1.Cl | 95 to 115 °C |
| O=c1cc(-c2cccc3ccccc23)ccn1-c1ccc2c(cnn2CCN2CCCC2)c1 (as salt: hydrochloride) | 128 to 133 °C |
| Cl.Cn1ncc2cc(-c3ccn(-c4ccc5c(cnn5CCN5CCCC5)c4)c(=O)c3)ccc21 | 55 to 65 °C |
| Cl.O=c1cc(-c2ccc(C(F)(F)F)cc2)ccn1-c1ccc2c(cnn2CCN2CCOCC2)c1 | 248 to 250 °C (dec.) |
| Cl.O=c1cc(-c2ccc(C(F)(F)F)cc2F)ccn1-c1ccc2c(cnn2CCN2CCCC2)c1 | 80 to 95 °C |
| CN(C)CCn1ncc2cc(-n3ccc(-c4ccc(C(F)(F)F)cc4)cc3=O)ccc21.Cl | 222 to 224 °C |
| Cl.O=c1cc(-c2ccc(C(F)(F)F)cn2)ccn1-c1ccc2c(cnn2CCCN2CCCC2)c1 | 110 to 120 °C |

target: T1, human MCH1 receptor (Homo sapiens, UniProt Q99705); experiment: MCH1 binding assay I or II (radioligand binding, membranes of CHO cells expressing the receptor); conditions: estimated based on the measured percent inhibition
T1 construct: host or cells: CHO cells (assay I)
From the text: Binding Assay I for Human Melanin-Concentrating Hormone (MCH1) Receptor
Evaluation of the affinity of compounds for the human MCH1 receptor was accomplished in transfected Chinese Hamster Ovary (CHO) cells determined in a radioligand binding assay, as described in MacDonald et al., “Molecular characterization of the melanin-concentrating hormone/receptor complex: identification of critical residues involved in binding and activation”, Mol Pharmacol., 58:217 (2000). […] Nonspecific binding was determined in the presence of 0.1 μM MCH. […] The filters were dried, then counted for radioactivity in a scintillation counter (Topcount, Packard) using a scintillation cocktail (Microscint 0, Packard).
The results are expressed as a percent inhibition of the control radioligand specific binding. The IC50 value (concentration causing a half-maximal inhibition of control specific binding) and Hill coefficient (nH) were determined by non-linear regression analysis of the competition curve using Hill equation curve fitting. The inhibition constant (Ki) was calculated from the Cheng Prusoff equation: (Ki=IC50/(1+(L/KD)), where L=concentration of radioligand in the assay, and KD=affinity of the radioligand for the receptor). […]
The results are expressed as a percent inhibition of the control radioligand specific binding. […]

T1 sequence (Q99705 whole entry): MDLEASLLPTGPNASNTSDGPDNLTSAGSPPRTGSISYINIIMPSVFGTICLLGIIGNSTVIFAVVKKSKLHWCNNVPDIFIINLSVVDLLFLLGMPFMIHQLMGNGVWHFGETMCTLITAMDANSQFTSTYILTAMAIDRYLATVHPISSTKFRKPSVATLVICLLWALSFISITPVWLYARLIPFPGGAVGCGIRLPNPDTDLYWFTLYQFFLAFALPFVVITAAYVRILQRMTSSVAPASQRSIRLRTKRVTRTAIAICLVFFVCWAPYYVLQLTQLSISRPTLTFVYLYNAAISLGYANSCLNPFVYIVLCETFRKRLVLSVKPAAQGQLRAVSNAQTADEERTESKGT

| Ki | SMILES |
| --- | --- |
| ~3 µM | COc1ccc2c(c1)cc(-c1ccn(-c3ccc4c(cnn4CCN4CCCC4)c3)c(=O)c1)n2C [Example 65, 4-(5-Methoxy-1-methyl-1H-indol-2-yl)-1-(1-(2-(pyrrolidin-1-yl)ethyl)-1H-indazol-5-yl)pyridin-2(1H)-one dihydrochloride] |
